According to ChEMBL document CHEMBL4765457, “Targeting dual tolerant regions of binding pocket: Discovery of novel morpholine-substituted diarylpyrimidines as potent HIV-1 NNRTIs with significantly improved water solubility” (Eur J Med Chem, 2020):
Values after ≈ are worked out from the molar mass of the structure shown.

How the values were obtained:
[1] = tested on: Human immunodeficiency virus 1; assay: Antiviral activity against HIV1 harboring RT K103N mutant infected in human MT4 cells assessed as inhibition of virus-induced cytopathic effect incubated for 5 days by MTT assay; assay type: functional, organism-based; conditions: Human immunodeficiency virus 1, MT4, 120 h
[2] = Resistance index, ratio of EC50 for antiviral activity against HIV1 expressing RT Y181C mutant infected in human MT4 cells to EC50 for antiviral activity against HIV1 3B infected in human MT4 cells; assay type: functional
[3] = tested on: Human immunodeficiency virus 1; assay: Antiviral activity against HIV1 harboring RT L100I mutant infected in human MT4 cells assessed as inhibition of virus-induced cytopathic effect incubated for 5 days by MTT assay; assay type: functional, organism-based; conditions: Human immunodeficiency virus 1, MT4, 120 h
[4] = Selectivity index, ratio of CC50 for human MT4 cells to EC50 for antiviral activity against HIV1 3B infected in human MT4 cells; assay type: toxicity, cell-based; conditions: read-out: Ratio CC50/EC50
[5] = tested on: Human immunodeficiency virus 1; assay: Antiviral activity against HIV1 harboring RT F227L/V106Amutant infected in human MT4 cells assessed as inhibition of virus-induced cytopathic effect incubated for 5 days by MTT assay; assay type: functional, organism-based; conditions: Human immunodeficiency virus 1, MT4, 120 h
[6] = Resistance index, ratio of EC50 for antiviral activity against HIV1 expressing RT L100I mutant infected in human MT4 cells to EC50 for antiviral activity against HIV1 3B infected in human MT4 cells; assay type: functional
[7] = Resistance index, ratio of EC50 for antiviral activity against HIV1 expressing RT F227L/V106A mutant infected in human MT4 cells to EC50 for antiviral activity against HIV1 3B infected in human MT4 cells; assay type: functional
[8] = Resistance index, ratio of EC50 for antiviral activity against HIV1 expressing RT Y188L mutant infected in human MT4 cells to EC50 for antiviral activity against HIV1 3B infected in human MT4 cells; assay type: functional
[9] = Resistance index, ratio of EC50 for antiviral activity against HIV1 expressing RT K103N mutant infected in human MT4 cells to EC50 for antiviral activity against HIV1 3B infected in human MT4 cells; assay type: functional
[10] = tested on: Human immunodeficiency virus 1; assay: Antiviral activity against HIV1 RES056 infected in human MT4 cells assessed as inhibition of virus-induced cytopathic effect incubated for 5 days by MTT assay; assay type: functional, organism-based; conditions: Human immunodeficiency virus 1, RES056, MT4, 120 h
[11] = Resistance index, ratio of EC50 for antiviral activity against HIV1 expressing RT E138K mutant infected in human MT4 cells to EC50 for antiviral activity against HIV1 3B infected in human MT4 cells; assay type: functional
[12] = tested on: Human immunodeficiency virus 1; assay: Antiviral activity against HIV1 harboring RT Y188L mutant infected in human MT4 cells assessed as inhibition of virus-induced cytopathic effect incubated for 5 days by MTT assay; assay type: functional, organism-based; conditions: Human immunodeficiency virus 1, MT4, 120 h
[13] = Selectivity index, ratio of CC50 for human MT4 cells to EC50 for antiviral activity against HIV1 RES056 infected in human MT4 cells; assay type: toxicity, cell-based; conditions: read-out: Ratio CC50/EC50
[14] = Cytotoxicity against human MT4 cells assessed as reduction in cell viability incubated for 5 days by MTT assay; assay type: cell-based; conditions: time 5 day
[15] = tested on: Human immunodeficiency virus 1; assay: Antiviral activity against HIV1 harboring RT E138K mutant infected in human MT4 cells assessed as inhibition of virus-induced cytopathic effect incubated for 5 days by MTT assay; assay type: functional, organism-based; conditions: Human immunodeficiency virus 1, MT4, 120 h
[16] = tested on: Human immunodeficiency virus 1; assay: Potency index, ratio of nevirapine EC50 to test compound EC50 for antiviral activity against HIV1 harboring K103N mutant infected in human MT4 cells; assay type: functional
[17] = tested on: Human immunodeficiency virus 1; assay: Antiviral activity against HIV1 3B infected in human MT4 cells assessed as virus-induced cytopathic effect incubated for 5 days by MTT assay; assay type: functional, organism-based; conditions: Human immunodeficiency virus 1, 3B, MT4, 120 h
[18] = tested on: Human immunodeficiency virus 1; assay: Antiviral activity against HIV1 harboring RT Y181C mutant infected in human MT4 cells assessed as inhibition of virus-induced cytopathic effect incubated for 5 days by MTT assay; assay type: functional, organism-based; conditions: Human immunodeficiency virus 1, MT4, 120 h
[19] = tested on: Human immunodeficiency virus 1; assay: Potency index, ratio of lamivudine EC50 to test compound EC50 for antiviral activity against HIV1 harboring K103N mutant infected in human MT4 cells; assay type: functional
[20] = Solubility of compound in water at pH 7.4; assay type: physicochemical
[21] = Solubility of compound in water at pH 7; assay type: physicochemical
[22] = Solubility of compound in water at pH 2; assay type: physicochemical
[23] = Inhibition of HIV1 reverse transcriptase assessed as reduction in biotin-dUTP incorporation into template preincubated for 1 hr followed by template/primer and dNTP addition and measured after 1 hr by ELISA; design: species or system Human immunodeficiency virus 1
[24] = tested on: Human immunodeficiency virus 1; assay: Potency index, ratio of lamivudine EC50 to test compound EC50 for antiviral activity against HIV1 3B infected in human MT4 cells; assay type: functional
[25] = tested on: Human immunodeficiency virus 1; assay: Potency index, ratio of zidovudine EC50 to test compound EC50 for antiviral activity against HIV1 3B infected in human MT4 cells; assay type: functional

SMILES	EC50 [1] [nM]	Ratio EC50 [2]	EC50 [3] [nM]	selectivity ratio [4]	EC50 [5] [nM]	Ratio EC50 [6]	Ratio EC50 [7]	Ratio EC50 [8]	Ratio EC50 [9]	EC50 [10] [nM]	Ratio EC50 [11]	EC50 [12] [nM]	selectivity ratio [13]	CC50 at 120 h [14] [nM]	EC50 [15] [nM]	EC50 [17] [nM]	EC50 [18] [nM]	solubility [20] [µg/mL]	solubility [21] [µg/mL]	IC50 [23] [nM]	further results
Cc1cc(C#N)cc(C)c1Oc1nc(NC2CCN(CCN3CCOCC3)CC2)nc2cc(F)ccc12	522	5.6	1240	70	2920	5.1	12.1	10	2.2	> 16900	4	2400	< 1	16900	963	241	1350	–	–	–	Ratio EC50 [16]: 10; Ratio EC50 [19]: 8
Cc1cc(C#N)cc(C)c1Oc1nc(NC2CCN(CCN3CCOCC3)CC2)nc2ccsc12	1040	95.8	8700	423	7140	99.9	81.9	107.9	11.9	> 36800	5	9390	< 1	36800	437	87	8350	15.6 (≈ 31.7 µM)	24.4 (≈ 49.5 µM)	2530	solubility [22]: 207 µg/mL (≈ 420 µM)
Cc1cc(C#N)cc(C)c1Oc1nc(NC2CCN(CCN3CCOCC3)CC2)nc2sccc12	610	105.5	14700	579	18700	224.5	285.5	690.6	9.3	> 37900	9	45200	< 1	37900	586	65	6900	19.7 (≈ 40 µM)	29.3 (≈ 59.5 µM)	2360	solubility [22]: 243 µg/mL (≈ 493 µM)
Cc1cc(C#N)cc(C)c1Oc1nc(NC2CCN(CC(=O)N3CCOCC3)CC2)nc2c1SCC2	1280	93.5	6120	663	> 38600	105	>662.9	89.4	21.9	> 38600	22.6	5210	< 1	38600	1310	58	5450	29.1 (≈ 57.2 µM)	35.2 (≈ 69.2 µM)	3370	Ratio EC50 [24]: <=87; solubility [22]: 248 µg/mL (≈ 488 µM); Ratio EC50 [25]: 2.8
Cc1cc(C#N)cc(C)c1Oc1nc(NC2CCN(CC(=O)N3CCOCC3)CC2)nc2sccc12	1620	44.3	3670	442	13800	44.8	168	87.5	19.8	> 36300	4.1	7180	< 1	36300	334	82	3640	27.6 (≈ 54.5 µM)	34.2 (≈ 67.5 µM)	1490	solubility [22]: 228 µg/mL (≈ 450 µM)
Cc1cc(C#N)cc(C)c1Oc1nc(Nc2ccc(C#N)cc2)nc(N)c1Br [ETRAVIRINE]	3	4.9	5	> 1640	18	1.9	6.3	4.9	1	38	2.6	14	> 122	> 4590	7	–	14	–	–	59	–
